Reference: patent EP0943680A1 (priority 1998, dated 1999)
In brackets after ≈: the same amount, converted by molar mass. Entries after “also recorded” stand apart in the source; their conditions may differ. Read-outs that look alike come from different tables or passages of the source. Marks after values point to notes of the source that are not given here.

Legend:
C6 Rat glioma = format: cell-based
[1] = tested on: U-373 MG Human Glioblastoma; format: cell-based; conditions: parental U-373 MG
Hs 683 Human Glioma = format: cell-based; conditions: parental Hs 683
[2] = tested on: Sk-N-MC Human Neuroblastoma; format: cell-based; conditions: parental Sk-N-MC
[3] = tested on: FLYA13 Human Amphotropic Packaging Cells; format: cell-based; conditions: parental FLYA13
[4] = tested on: ΨCRIP Murine Amphotropic Packaging Cells; format: cell-based; conditions: parental ΨCRIP
[5] = tested on: NlH 3T3 Murine Fibroblasts; format: cell-based; conditions: parental 3T3
[6] = tested on: Ag 9181 Human Fibroblasts; format: cell-based; conditions: parental Ag 9181
[7] = tested on: C6 Rat glioma lin ^+ clones; experiment: cells; format: cell-based; conditions: for IC50: Rattus norvegicus
[8] = tested on: U-373 MG Human Glioblastoma lin ^+ clones; experiment: cells; format: cell-based; conditions: U373 MG, U-373 MG lin+
[9] = tested on: Hs 683 Human Glioma lin ^+ clones; experiment: cells; format: cell-based; conditions: Hs 683 lin+
[10] = tested on: Sk-N-MC Human Neuroblastoma lin ^+ clones; experiment: cells; format: cell-based
[11] = tested on: FLYA13 Human Amphotropic Packaging Cells lin ^+ clones; experiment: cells; format: cell-based
[12] = tested on: ΨCRIPlin plus normal C6 cells labeled red with Dil; format: cell-based
[13] = tested on: ΨCRIPlin /ΨCRIP red or ΨCRIPlin /3T3 red; format: cell-based; conditions: 100 µg/ml linamarin
[14] = tested on: brain tumor of glioblastoma-C6lin transfected cells; format: in vivo, Wistar rats
C6, ΨCRIP and 3T3 = conditions: very high concentrations of linamarin; cells without linamarase gene
[15] = tested on: rat glioblastoma C6 cells brain tumour
normal rat brains = conditions: local administration of up to 9 mg of linamarin
[16] = all human tissues; 1-20 mM linamarin, pH 6 and 7.4, 37°C
[17] = rat kidney only; 1-20 mM linamarin, pH 6 and 7.4, 37°C
adults = conditions: human, in vivo
[18] = tested on: ΨCRIP Murine Amphotropic Packaging Cells lin ^+ clones; experiment: cells; conditions: Mus musculus
Female hamsters = conditions: oral dose of 108 mg of linamarin/kg body weight; cited from earlier work
animals = conditions: cited from earlier work
[19] = in the absence of linamarase; cited from earlier work
[20] = tested on: Neoplastic cells forming a tumor; conditions: cited from earlier work
[21] = best clone, read-out: IC50 µg/ml Linamarin lin ^+ clones Best clone
[22] = mean of at least 4 clones, […], read-out: IC50 µg/ml Linamarin lin ^+ clones Mean value

Compound: CC(C)(C#N)O[C@@H]1O[C@H](CO)[C@@H](O)[C@H](O)[C@H]1O [linamarin, 2-0H-isobutyronitrile-β-D-glucopyranoside]
- % of survival cells with 1 mg/ml Linamarin (C6 Rat glioma; 1 mg/ml linamarin, parental C6): 100^a %
- survival of C6 alone (C6 Rat glioma; 10 mg/ml linamarin): 86%
- % of survival cells with 1 mg/ml Linamarin [1]: 80%
- % of survival cells with 1 mg/ml Linamarin (Hs 683 Human Glioma): 80%
- % of survival cells with 1 mg/ml Linamarin [2]: 80%
- % of survival cells with 1 mg/ml Linamarin [3]: 88^a %
- % of survival cells with 1 mg/ml Linamarin ([4]; 1 mg/ml linamarin): 85%
- cell survival values ([4]; up to 2 mg/ml of linamarin): did not substantially decrease cell survival values
- % of survival cells with 1 mg/ml Linamarin [5]: 90^a %
- % of survival cells with 1 mg/ml Linamarin [6]: 89^a %
- IC50 ([7]; C6lin clone, pH 6.6, read-out: estimated IC50): 202 µg/mL (≈ 817 µM)
- IC50 ([7]; C6lin clone, pH 7.4, read-out: estimated IC50): 345 µg/mL (≈ 1400 µM)
- IC50 ([7]; C6 lin+, best clone, read-out: IC50 µg/ml Linamarin lin ^+ clones Best clone): 345 µg/mL
- IC50 ([7]; C6 lin+, mean of at least 4 clones, […], read-out: IC50 µg/ml Linamarin lin ^+ clones Mean value): 407 µg/mL
- IC50 of C6lin clones relative to ΨCRIP individual clones ([7]; in general): 50 times higher
- IC50 [8, 21]: 145 µg/mL
- IC50 [8, 22]: 236 µg/mL
- IC50 [9, 21]: 230 µg/mL
- IC50 [9, 22]: 288 µg/mL
- IC50 [10, 21]: 183 µg/mL
- IC50 [10, 22]: 215 µg/mL
- IC50 ([11]; FLYA13lin clone, pH 6.6, read-out: estimated IC50): 77 µg/mL (≈ 311 µM)
- IC50 ([11]; FLYA13lin clone, pH 7.4, read-out: estimated IC50): 195 µg/mL (≈ 789 µM)
- IC50 ([11]; FLYA13 lin+, best clone, read-out: IC50 µg/ml Linamarin lin ^+ clones Best clone): 195 µg/mL
- IC50 ([11]; FLYA13 lin+, mean of at least 4 clones, […], read-out: IC50 µg/ml Linamarin lin ^+ clones Mean value): 382 µg/mL
- viability of either cell type in the mixture ([12]; 100 µg/ml linamarin): affect only partially the viability
- fate of both cell types in the mixture ([12]; 2.5 mg/ml of linamarin): died
- fate of the mixtures [13]: devastated
- outcome of the animal ([14]; similar size tumour, only 1 mg of linamarin): finally died as a consequence of the tumour
- tumour outcome by magnetic resonance imaging ([14]; tumour around 70 mm^3, total of 2.4 mg linamarin over 8 days, local infusion, image three weeks after treatment): total absence of the tumoral mass; also recorded: eradicated completely
- cyanide detected after linamarin treatment (C6, ΨCRIP and 3T3): No cyanide was detected
- outcome of the medium size tumour animal ([15]; rat, in vivo): died a month later
- outcome of control animals treated only with the prodrug ([15]; tumours of 220 and 140 mm^3, […]): died shortly afterwards
- tumour outcome, largest and smallest glioblastomas ([15]; tumours of 1000 mm^3 and 400 mm^3, […]): total eradication of the tumour
- cases developing a recurrence later ([15]; very large tumors (over 500 mm^3 in size), after up to six months): approximately 50%
- toxicity (normal rat brains): No apparent toxicity
- linamarase activity (cyanide release from linamarin) [16]: negative results for linamarase activity
- linamarase activity (cyanide release from linamarin) [17]: low but detectable levels of cyanide production
- equivalent of the lethal cyanide dose (adults): 500 to 1000 mg
- IC50 ([18]; read-out: IC50 µg/ml Linamarin lin ^+ clones Best clone): 7 µg/mL
- IC50 ([18]; read-out: IC50 µg/ml Linamarin lin ^+ clones Mean value): 32 µg/mL
- IC50 ([18]; read-out: concentrations that resulted in 50% cytotoxicity (IC50)): 7 to 60 µg/mL (≈ 28.3 to 243 µM)
- death (cyanide poisoning) (Female hamsters): 18 % of the animals
- toxicity compared with oral dosing (animals; administered intraperitoneally): practically absent
- toxicity compared with oral dosing (animals; similar doses intravenously): much lower
- excretion once absorbed [19]: excreted unchanged in the urine

Compound: N#CO [sodium cyanate]
- higher sensitivity to the inhibitory effects at decreased extracellular pH [20]: ≥ 50%
